# Test results reported in PubChem BioAssay AID1996.
# Conditions: buffer; pH 7.4; 200.0 µM
row,Compound,solubility kinetic [µg/mL]
1,CCc1ccc(-c2cc(C(=O)O)c3ccccc3n2)s1,> 42.5
2,O=C(O)c1c(N2CCCCC2)ccc([N+](=O)[O-])c1N1CCCCC1,46.4
3,Cl.NS(=O)(=O)c1ccc(CCNCc2cccnc2)cc1,40.5
4,Cc1ccc(NS(=O)(=O)c2ccc(NC(=O)c3ccccc3C(=O)O)cc2)cc1C,> 63.7
5,Cc1ccc(C)c(SCC(=O)c2ccc[nH]2)c1,29.9
6,COc1ccc(NC(=O)Nc2cnccn2)cc1,8.1
7,Cc1cc(C)n2nc(SCC(=O)N3CCN(c4ccccc4)CC3)nc2n1,> 57.4
8,O=C(O)CCCC(=O)Nc1cccc([N+](=O)[O-])c1,> 37.8
9,COc1ccccc1NC(=O)c1ccc[n+]([O-])c1,> 36.6
10,O=C(Nc1ccccc1C(F)(F)F)c1ccccc1Br,39.8
11,Cc1ccccc1OCC(=O)Nc1cnn(CCCC(=O)O)c1,> 47.6
12,Cc1ccc(S(=O)(=O)N2CCN(C(=O)COC(=O)c3cc([N+](=O)[O-])ccc3NCCO)CC2)c(C)c1,17
13,O=C(Nc1ccccn1)C(=O)Nc1ccccn1,35.6
14,CN1CC(c2ccccc2)Oc2ccccc2C1=S (stereo not given),5.6
15,O=C(c1ccc(F)cc1)N1CCC(c2ccccc2)C1 (stereo not given),39.8
16,CCc1noc(C)c1C(=O)Nc1nc2ccc(F)cc2s1,27.2
17,CN(C(=O)CSc1nc2ccccc2c(=O)n1-c1ccc(F)cc1F)C1CCS(=O)(=O)C1 (stereo not given),> 71.9
18,COC(=O)Cn1c2ccc(C)cc2c2nc3ccccc3nc21,< 0.2
19,Cc1cc(=O)oc2cc(OCC(O)Cn3ccnc3)ccc12 (stereo not given),> 45
20,CCN(CC(=O)Nc1cc(Cl)cc(Cl)c1)CC(=O)NC1CCS(=O)(=O)C1 (stereo not given),52.3

row,Compound,solubility kinetic [µg/mL]
1,COc1ccccc1NS(=O)(=O)c1ccc2c(c1)OCCO2,48
2,O=C(CCl)Nc1ccc(S(=O)(=O)NC2=NCCCCC2)cc1,> 51.6
3,Cc1cc(C)cc(NC2=C(N)C(=O)c3ccccc3C2=O)c1,0.4
4,COc1ccc(NC(C)=O)cc1C#N,24.5
5,O=C(c1ccccc1)N1CCN(CCc2ccccc2)CC1,40.7
6,N#CCCN(Cc1ccccc1)C(=S)Nc1ccc(F)cc1,28.8
7,Cc1noc2ncnc(SCc3ccc(C(F)(F)F)cc3)c12,1.1
8,Cc1onc(-c2ccccc2)c1CNS(=O)(=O)c1ccccc1,44
9,Cc1ccc(C(=O)NCCN2CCNC2=O)cc1,> 37.1
10,COc1ccc(OC)c(NC(=O)CC2(CC(=O)O)CCCC2)c1,> 48.2
11,Fc1cc2[nH]cnc2cc1Cl,> 25.6
12,Cc1cc(SCC(=O)NC2CCCC2)nc2ccccc12,8.8
13,Cc1ccc(NC(=O)CN(CCc2ccccc2)S(C)(=O)=O)cc1,51.6
14,O=C1CC(c2ccccc2)CC(=O)N1c1ccccc1,11.3
15,COc1ccc(OC)c(/C=C/c2[nH]c(=O)[nH]c(=O)c2[N+](=O)[O-])c1,35.1
16,CCC(=O)N1CCN(c2ccnc3cc(Cl)ccc23)CC1,40.4
17,O=C(NCCC1=CCCCC1)C(=O)NCCc1ccc(Cl)cc1,< 0.4
18,N#Cc1ccc(S(=O)(=O)NC2CC2)cc1,> 33.3
19,Oc1ccc(Nc2nc(-c3ccccc3O)nc3ccccc23)cc1,2.1
20,CC(=O)c1ccc(OC(C)c2nc3ccccc3s2)cc1 (stereo not given),13.1

row,Compound,solubility kinetic [µg/mL]
1,COc1c(N2CCN[C@H](C)C2)c(F)cc2c(=O)c(C(=O)O)cn(C3CC3)c12,38.6
2,N#Cc1c(-c2ccccc2)oc(=O)c2ccccc12,1.2
3,Cc1ccc(OCC(=O)Nc2ccccc2C(=O)NC2CC2)cc1C,0.8
4,CCN(C(=O)Cn1c(=O)oc2ccccc21)c1cccc(C)c1,> 46.6
5,O=C(Cc1ccc(Cl)cc1)OCC(=O)N1CCCCCC1,> 46.5
6,CCc1noc(C)c1C(=O)NCCc1ccc(S(N)(=O)=O)cc1,> 50.6
7,COc1ccc(NC(=S)NC(=O)Cc2ccccc2)c(OC)c1,1.7
8,Cc1cccc(NC(=S)NC2CCCC2)c1C,34.1
9,N#Cc1cnn2cc(CCN3CCOCC3)c(-c3ccc(F)cc3)nc12,> 52.7
10,N#CCSc1ccc(S(=O)(=O)N2CCOCC2)cn1,> 44.9
11,C[C@@H]1C(NC(=O)c2ccccc2)CC2CC1C2(C)C (stereo not given in full),6.4
12,CCC(=Nc1ccccc1O)C1=C(O)CC(c2ccccc2)CC1=O (stereo not given),39.7
13,O=C(Cc1ccc(Cl)cc1)N1CCOCC1,> 36
14,O=C(O)CCC(=NNC(=O)c1cccc(S(=O)(=O)N2CCCCC2)c1)c1ccccc1,> 66.5
15,N#Cc1cccc(NC(=O)CSc2n[nH]c(=O)[nH]c2=O)c1,> 45.5
16,C/C(CC(=O)Nc1ccc(Cl)cc1C(F)(F)F)=N\NC(N)=S,> 52.9
17,O=c1[nH]c2ccccc2o1,> 20.3
18,O=C(Nc1ccccc1C(F)(F)F)N1CCN(c2ccccn2)CC1,49.9
19,COC(=O)c1ccncc1N,> 22.8
20,COc1nccc(C(F)(F)F)c1C(=O)NC(=O)Nc1ccccc1,11.5
